Reference: article PMC2646632 (ACS chemical biology, 2008)

Tested on: mouse SMN mRNA
Assay: Real-time PCR of endogenous SMN mRNA in NSC34 cells
Type: cell-based
Conditions: trichostatin A at 100 nM

SMILES | Increase of SMN mRNA
CC(/C=C/C(=O)NO)=C\[C@@H](C)C(=O)c1ccc(N(C)C)cc1 [trichostatin A] | two-fold
Nc1nc(N)c2c(OCC3CCN(Cc4ccccc4F)CC3)cccc2n1 [D156844] | two-fold
